Test results as given in the NIST ThermoML archive (doi:10.1021/acs.jced.5b00623).
Values joined by “and” are separate entries in the source; they are usually repeats but may differ in a detail not shown here. Equal values may be shown once. ± gives the expanded uncertainty stated by the source.

Conditions: for speed of sound: Gas, Spherical resonator; for vapor or sublimation pressure / mass density: Liquid; for vapor or sublimation pressure: Closed cell (Static) method; for mass density: Buoyancy - hydrostatic balance with magnetic suspension - two sinkers

O=C(C(F)(F)C(F)(F)F)C(F)(C(F)(F)F)C(F)(F)F [dodecafluoro-2-methylpentan-3-one]
speed of sound (324.97 K, 100.58 kPa): 88.41 ± 0.19 m/s | vapor or sublimation pressure (324.97 K): 111.4 ± 1.4 kPa and 111.3 ± 1.4 kPa | vapor or sublimation pressure (324.98 K): 111.6 ± 1.3 kPa | mass density (326.01 K, 13558 kPa): 1587.57 ± 0.2 kg/m3 | mass density (334.01 K, 17866 kPa): 1585.99 ± 0.2 kg/m3 | mass density (334.02 K, 17984 kPa): 1586.44 ± 0.2 kg/m3 | vapor or sublimation pressure (339.95 K): 180.3 ± 1.4 kPa | mass density (340 K, 1091.8 kPa): 1474.85 ± 0.18 kg/m3 | mass density (340 K, 4035.6 kPa): 1497.23 ± 0.19 kg/m3 | mass density (340 K, 7986.5 kPa): 1522.5 ± 0.19 kg/m3 | mass density (340 K, 11938 kPa): 1544.06 ± 0.19 kg/m3 | mass density (340 K, 16171 kPa): 1564.25 ± 0.2 kg/m3 | mass density (340 K, 21184 kPa): 1585.31 ± 0.2 kg/m3 | mass density (342.01 K, 22145 kPa): 1584.49 ± 0.2 kg/m3 | speed of sound (349.97 K, 150.02 kPa): 90.93 ± 0.19 m/s | speed of sound (349.97 K, 191.77 kPa): 88.85 ± 0.19 m/s | speed of sound (349.98 K, 61.83 kPa): 94.86 ± 0.2 m/s | speed of sound (349.98 K, 106.24 kPa): 92.93 ± 0.19 m/s | vapor or sublimation pressure (349.99 K): 242.7 ± 1.4 kPa | speed of sound (350 K, 53.94 kPa): 95.2 ± 0.2 m/s | speed of sound (350 K, 104.66 kPa): 93 ± 0.19 m/s | speed of sound (350 K, 152.11 kPa): 90.82 ± 0.19 m/s | speed of sound (350 K, 191.03 kPa): 88.88 ± 0.19 m/s | mass density (350 K, 26385 kPa): 1583.04 ± 0.2 kg/m3 | vapor or sublimation pressure (354.98 K): 278.7 ± 1.4 kPa | mass density (360 K, 1009.8 kPa): 1401.62 ± 0.18 kg/m3 | mass density (360 K, 6002.5 kPa): 1449.57 ± 0.18 kg/m3 | mass density (360 K, 8915.5 kPa): 1471.34 ± 0.19 kg/m3 | mass density (360 K, 11021 kPa): 1485.32 ± 0.19 kg/m3 | mass density (360 K, 16073 kPa): 1514.43 ± 0.19 kg/m3 | mass density (360 K, 21146 kPa): 1539.18 ± 0.2 kg/m3 | mass density (360 K, 31620 kPa): 1581.19 ± 0.21 kg/m3 | mass density (370 K, 4182.9 kPa): 1400.06 ± 0.18 kg/m3 | vapor or sublimation pressure (370 K): 413.4 ± 1.5 kPa | vapor or sublimation pressure (374.99 K): 467.9 ± 1.6 kPa and 467.6 ± 1.6 kPa | speed of sound (375.01 K, 57.06 kPa): 98.91 ± 0.2 m/s | speed of sound (375.01 K, 123.45 kPa): 96.64 ± 0.2 m/s | speed of sound (375.01 K, 220.4 kPa): 93.07 ± 0.19 m/s | speed of sound (375.01 K, 316.42 kPa): 89.11 ± 0.19 m/s | mass density (380 K, 7353.3 kPa): 1398.51 ± 0.18 kg/m3 | mass density (380.04 K, 16688 kPa): 1468.1 ± 0.19 kg/m3 | mass density (385.99 K, 9254.1 kPa): 1397.63 ± 0.18 kg/m3 | vapor or sublimation pressure (390.03 K): 663.7 ± 1.8 kPa | mass density (393.98 K, 11788 kPa): 1396.48 ± 0.18 kg/m3 | mass density (400 K, 2018.5 kPa): 1244.05 ± 0.17 kg/m3 | mass density (400 K, 3987.4 kPa): 1284.55 ± 0.17 kg/m3 | mass density (400 K, 8129.1 kPa): 1342.48 ± 0.18 kg/m3 | mass density (400.01 K, 11999 kPa): 1381.28 ± 0.18 kg/m3
